Assay results taken from patent publication US20070117743A1, “New antitumoral compounds” (priority 2003, published 2007).
Where a SMILES comes first, the peptide text is derived from it. Bridges are numbered along the chain shown (N, C = ends). [ ]: non-standard residue; d: D form. The star is where a group is joined. d(aIle) = CC[C@H](C)[C@@H](N)C(=O)O; d(aThr) = C[C@@H](O)[C@@H](N)C(=O)O; hCha = N[C@@H](CCC1CCCCC1)C(=O)O; Hexanoyl(5-Me) = CC(C)CCCC(=O)*; dCha = N[C@H](CC1CCCCC1)C(=O)O; Orn = NCCC[C@H](N)C(=O)O; Dhb = C/C=C(\N)C(=O)O

Tests used:
Assay type in all cases: cell-based, human
SK-BR-3 = test: SRB colorimetric assay of cell growth and viability, SK-BR-3; settings: 48 hours exposure
A-549 = test: SRB colorimetric assay of cell growth and viability, A-549; settings: 48 hours exposure; for GI50: read-out: GI50 A-549; for CC50: read-out: LC50 A-549
PANC-1 = test: SRB colorimetric assay of cell growth and viability, PANC-1; settings: 48 hours exposure; for CC50: read-out: LC50 PANC-1
HeLa-APL = test: SRB colorimetric assay of cell growth and viability, HeLa-APL; settings: 48 hours exposure; for CC50: read-out: LC50 HELA-APL
HT-29 = test: SRB colorimetric assay of cell growth and viability, HT-29; settings: 48 hours exposure; for GI50: read-out: GI50 HT-29; for CC50: read-out: LC50 HT-29
LNCaP = test: SRB colorimetric assay of cell growth and viability, LNCaP; settings: 48 hours exposure; for GI50: read-out: GI50 LN-caP; for CC50: read-out: LC50 LN-caP
SK-MEL-28 = test: SRB colorimetric assay of cell growth and viability, SK-MEL-28; settings: 48 hours exposure; for CC50: read-out: LC50 MEL-28
K-562 = test: SRB colorimetric assay of cell growth and viability, K-562; settings: 48 hours exposure; for CC50: read-out: LC50 K-562
LoVo-Dox = test: SRB colorimetric assay of cell growth and viability, LoVo-Dox; settings: 48 hours exposure; for CC50: read-out: LC50 LOVO-DOX
Outline: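 Absorbance at 490 nm of Tris-solubilized sulforhodamine B gives the read-out after cells are fixed with cold 50% TCA for 60 min at 4° C. Compound exposure lasts 48 hours over 10 to 10^−8 μg/mL. Growth inhibition, total growth inhibition and lethal concentration are calculated from triplicate wells.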

LoVo = test: SRB colorimetric assay of cell growth and viability, LoVo; settings: 48 hours exposure; for CC50: read-out: LC50 LOVO
HeLa = test: SRB colorimetric assay of cell growth and viability, HeLa; settings: 48 hours exposure; for CC50: read-out: LC50 HELA
IGROV-1 = test: SRB colorimetric assay of cell growth and viability, IGROV-1; settings: 48 hours exposure
IGROV-ET = test: SRB colorimetric assay of cell growth and viability, IGROV-ET; settings: 48 hours exposure; for CC50: read-out: LC50 IGROV-ET
DU-145 = test: SRB colorimetric assay of cell growth and viability, DU-145; settings: 48 hours exposure

[(4RS)-MeHex^14]-KF [Compound 17]
GI50 (SK-BR-3): 0.162 µM | LC50 (SK-BR-3): 0.606 µM | TGI SK-BR-3 (SK-BR-3): 3.14E−07 Molar | TGI A-549 (A-549): 7.51E−07 Molar | GI50 (A-549): 0.24 µM | CC50 (A-549): 2.89 µM | GI50 (PANC-1): 3.82 µM | TGI PANC-1 (PANC-1): 6.77E−06 Molar | CC50 (PANC-1): ≥ 6.77 µM | GI50 (HeLa-APL): 0.758 µM | TGI HELA-APL (HeLa-APL): 1.86E−06 Molar | CC50 (HeLa-APL): 4.59 µM | TGI HT-29 (HT-29): 2.84E−07 Molar | GI50 (HT-29): 0.147 µM | CC50 (HT-29): 0.55 µM | TGI LN-caP (LNCaP): 2.10E−06 Molar | GI50 (LNCaP): 0.934 µM | CC50 (LNCaP): 4.75 µM | GI50 (SK-MEL-28): 1.3 µM | TGI MEL-28 (SK-MEL-28): 2.54E−06 Molar | CC50 (SK-MEL-28): 4.96 µM | GI50 (K-562): 2.37 µM | TGI K-562 (K-562): 4.07E−06 Molar | CC50 (K-562): ≥ 6.77 µM | GI50 (LoVo-Dox): 0.18 µM | TGI LOVO-DOX (LoVo-Dox): 3.66E−07 Molar | CC50 (LoVo-Dox): 1.27 µM | GI50 (LoVo): 0.141 µM | TGI LOVO (LoVo): 2.67E−07 Molar | CC50 (LoVo): 0.503 µM | GI50 (HeLa): 0.744 µM | TGI HELA (HeLa): 1.71E−06 Molar | CC50 (HeLa): 3.92 µM | GI50 (IGROV-1): 0.185 µM | LC50 (concentration causing 50% net cell killing) (IGROV-1): 1.49 µM | TGI IGROV (IGROV-1): 3.96E−07 Molar | GI50 (IGROV-ET): 0.209 µM | TGI IGROV-ET (IGROV-ET): 4.24E−07 Molar | CC50 (IGROV-ET): 1.84 µM | GI50 (DU-145): 0.252 µM | LC50 (concentration causing 50% net cell kill) (DU-145): 2.65 µM | TGI DU-145 (DU-145): 8.39E−07 Molar

C/C=C1\NC(=O)[C@H](Cc2ccccc2)NC(=O)[C@@H](C(C)C)NC(=O)[C@@H]([C@@H](C)CC)NC(=O)[C@H](NC(=O)[C@H](NC(=O)[C@H](CCCN)NC(=O)[C@H]2CCCN2C(=O)[C@H](NC(=O)[C@@H](NC(=O)[C@@H](NC(=O)[C@H](NC(=O)CCCC(C)C)C(C)C)[C@@H](C)O)[C@@H](C)O)C(C)C)[C@@H](C)CC)[C@@H](C)OC(=O)[C@H](C(C)C)NC1=O [Compound 50, [Thr^11]-KF] ({Hexanoyl(5-Me)}-[dV]TT[dV][dP][Orn][d(aIle)][d(aThr)][d(aIle)][dV]F[Dhb]V; ester 8-C)
GI50 (SK-BR-3): 0.899 µM | LC50 (SK-BR-3): ≥ 6.76 µM | TGI SK-BR-3 (SK-BR-3): 2.58E−06 Molar | TGI A-549 (A-549): 6.76E−06 Molar | GI50 (A-549): ≥ 6.76 µM | CC50 (A-549): ≥ 6.76 µM | GI50 (PANC-1): 4.16 µM | TGI PANC-1 (PANC-1): 6.76E−06 Molar | CC50 (PANC-1): ≥ 6.76 µM | GI50 (HeLa-APL): ≥ 6.76 µM | TGI HELA-APL (HeLa-APL): 6.76E−06 Molar | CC50 (HeLa-APL): ≥ 6.76 µM | TGI HT-29 (HT-29): 6.76E−06 Molar | GI50 (HT-29): 3.76 µM | CC50 (HT-29): ≥ 6.76 µM | TGI LN-caP (LNCaP): 6.76E−06 Molar | GI50 (LNCaP): ≥ 6.76 µM | CC50 (LNCaP): ≥ 6.76 µM | GI50 (SK-MEL-28): ≥ 6.76 µM | TGI MEL-28 (SK-MEL-28): 6.76E−06 Molar | CC50 (SK-MEL-28): ≥ 6.76 µM | GI50 (K-562): ≥ 6.76 µM | TGI K-562 (K-562): 6.76E−06 Molar | CC50 (K-562): ≥ 6.76 µM | GI50 (LoVo-Dox): 1.27 µM | TGI LOVO-DOX (LoVo-Dox): 2.54E−06 Molar | CC50 (LoVo-Dox): 5.1 µM | GI50 (LoVo): 1.21 µM | TGI LOVO (LoVo): 2.80E−06 Molar | CC50 (LoVo): 6.47 µM | GI50 (HeLa): 5.58 µM | TGI HELA (HeLa): 6.76E−06 Molar | CC50 (HeLa): ≥ 6.76 µM | GI50 (IGROV-1): 3.76 µM | LC50 (concentration causing 50% net cell killing) (IGROV-1): ≥ 6.76 µM | TGI IGROV (IGROV-1): 6.76E−06 Molar | GI50 (IGROV-ET): 2.7 µM | TGI IGROV-ET (IGROV-ET): 6.76E−06 Molar | CC50 (IGROV-ET): ≥ 6.76 µM | GI50 (DU-145): ≥ 6.7 µM | LC50 (concentration causing 50% net cell kill) (DU-145): ≥ 6.76 µM | TGI DU-145 (DU-145): 6.76E−06 Molar

C/C=C1\NC(=O)[C@H](Cc2ccccc2)NC(=O)[C@@H](C(C)C)NC(=O)[C@@H]([C@@H](C)CC)NC(=O)[C@H](NC(=O)[C@H](NC(=O)[C@H](CCCN)NC(=O)[C@H]2CCCN2C(=O)[C@H](NC(=O)[C@H](CCC2CCCCC2)NC(=O)[C@@H](NC(=O)[C@@H](CC2CCCCC2)NC(=O)CCCC(C)C)[C@@H](C)O)C(C)C)[C@@H](C)CC)[C@@H](C)OC(=O)[C@H](C(C)C)NC1=O [Compound 10, [hCh^11, D-Cha^13]-KF] ({Hexanoyl(5-Me)}-[dCha]T[hCha][dV][dP][Orn][d(aIle)][d(aThr)][d(aIle)][dV]F[Dhb]V; ester 8-C)
GI50 (SK-BR-3): 1.31 µM | LC50 (SK-BR-3): 4.16 µM | TGI SK-BR-3 (SK-BR-3): 2.32E−06 Molar | TGI A-549 (A-549): 6.25E−06 Molar | GI50 (A-549): 3.56 µM | CC50 (A-549): 6.25 µM | GI50 (HeLa-APL): 3.67 µM | TGI HELA-APL (HeLa-APL): 6.25E−06 Molar | CC50 (HeLa-APL): 6.25 µM | TGI HT-29 (HT-29): 1.96E−06 Molar | GI50 (HT-29): 1.06 µM | CC50 (HT-29): 3.58 µM | TGI LN-caP (LNCaP): 6.25E−06 Molar | GI50 (LNCaP): 4.89 µM | CC50 (LNCaP): 6.25 µM | GI50 (SK-MEL-28): 3.1 µM | TGI MEL-28 (SK-MEL-28): 6.25E−06 Molar | CC50 (SK-MEL-28): 6.25 µM | GI50 (K-562): 6.25 µM | TGI K-562 (K-562): 6.25E−06 Molar | CC50 (K-562): 6.25 µM | GI50 (LoVo-Dox): 0.537 µM | TGI LOVO-DOX (LoVo-Dox): 1.30E−06 Molar | CC50 (LoVo-Dox): 2.94 µM | GI50 (LoVo): 1.12 µM | TGI LOVO (LoVo): 2.27E−06 Molar | CC50 (LoVo): 4.59 µM | GI50 (HeLa): 2.67 µM | TGI HELA (HeLa): 6.25E−06 Molar | CC50 (HeLa): 6.25 µM | GI50 (IGROV-1): 1.99 µM | LC50 (concentration causing 50% net cell killing) (IGROV-1): 6.25 µM | TGI IGROV (IGROV-1): 3.84E−06 Molar | GI50 (IGROV-ET): 2.23 µM | TGI IGROV-ET (IGROV-ET): 4.56E−06 Molar | CC50 (IGROV-ET): 6.25 µM | GI50 (DU-145): 4.29 µM | LC50 (concentration causing 50% net cell kill) (DU-145): 6.25 µM | TGI DU-145 (DU-145): 6.25E−06 Molar
